± gives the uncertainty stated by the source.
Test: xn = mol fraction of the nth substance listed
Conditions: 100 kPa

OC1CCCC1 + OCCO
viscosity (293.15 K, x1 = 0.0096): 20.05 ± 3 mPa·s
viscosity (293.15 K, x1 = 0.0395): 19.37 ± 3 mPa·s
viscosity (293.15 K, x1 = 0.0579): 19.05 ± 3 mPa·s
viscosity (293.15 K, x1 = 0.0879): 18.56 ± 3 mPa·s
viscosity (293.15 K, x1 = 0.1): 18.37 ± 3 mPa·s
viscosity (293.15 K, x1 = 0.1962): 17.2 ± 3 mPa·s
viscosity (293.15 K, x1 = 0.305): 16.2 ± 3 mPa·s
viscosity (293.15 K, x1 = 0.3969): 15.4 ± 3 mPa·s
viscosity (293.15 K, x1 = 0.4993): 14.8 ± 3 mPa·s
viscosity (293.15 K, x1 = 0.5877): 14.3 ± 3 mPa·s
viscosity (293.15 K, x1 = 0.6993): 13.9 ± 3 mPa·s
viscosity (293.15 K, x1 = 0.797): 13.56 ± 3 mPa·s
viscosity (293.15 K, x1 = 0.8977): 13.15 ± 3 mPa·s
viscosity (298.15 K, x1 = 0.0096): 16.39 ± 3 mPa·s
viscosity (298.15 K, x1 = 0.0395): 15.85 ± 3 mPa·s
viscosity (298.15 K, x1 = 0.0579): 15.56 ± 3 mPa·s
viscosity (298.15 K, x1 = 0.0879): 15.14 ± 3 mPa·s
viscosity (298.15 K, x1 = 0.1): 14.97 ± 3 mPa·s
viscosity (298.15 K, x1 = 0.1962): 13.96 ± 3 mPa·s
viscosity (298.15 K, x1 = 0.305): 13.09 ± 3 mPa·s
viscosity (298.15 K, x1 = 0.3969): 12.54 ± 3 mPa·s
viscosity (298.15 K, x1 = 0.4993): 12.02 ± 3 mPa·s
viscosity (298.15 K, x1 = 0.5877): 11.69 ± 3 mPa·s
viscosity (298.15 K, x1 = 0.6993): 11.33 ± 3 mPa·s
viscosity (298.15 K, x1 = 0.797): 11.01 ± 3 mPa·s
viscosity (298.15 K, x1 = 0.8977): 10.62 ± 3 mPa·s
viscosity (303.15 K, x1 = 0.0096): 13.54 ± 3 mPa·s
viscosity (303.15 K, x1 = 0.0395): 13.05 ± 3 mPa·s
viscosity (303.15 K, x1 = 0.0579): 12.79 ± 3 mPa·s
viscosity (303.15 K, x1 = 0.0879): 12.41 ± 3 mPa·s
viscosity (303.15 K, x1 = 0.1): 12.3 ± 3 mPa·s
viscosity (303.15 K, x1 = 0.1962): 11.39 ± 3 mPa·s
viscosity (303.15 K, x1 = 0.305): 10.65 ± 3 mPa·s
viscosity (303.15 K, x1 = 0.3969): 10.2 ± 3 mPa·s
viscosity (303.15 K, x1 = 0.4993): 9.751 ± 3 mPa·s
viscosity (303.15 K, x1 = 0.5877): 9.42 ± 3 mPa·s
viscosity (303.15 K, x1 = 0.6993): 8.99 ± 3 mPa·s
viscosity (303.15 K, x1 = 0.797): 8.69 ± 3 mPa·s
viscosity (303.15 K, x1 = 0.8977): 8.345 ± 3 mPa·s
viscosity (308.15 K, x1 = 0.0096): 11.2 ± 3 mPa·s
viscosity (308.15 K, x1 = 0.0395): 10.76 ± 3 mPa·s
viscosity (308.15 K, x1 = 0.0579): 10.56 ± 3 mPa·s
viscosity (308.15 K, x1 = 0.0879): 10.23 ± 3 mPa·s
viscosity (308.15 K, x1 = 0.1): 10.1 ± 3 mPa·s
viscosity (308.15 K, x1 = 0.1962): 9.382 ± 3 mPa·s
viscosity (308.15 K, x1 = 0.305): 8.716 ± 3 mPa·s
viscosity (308.15 K, x1 = 0.3969): 8.282 ± 3 mPa·s
viscosity (308.15 K, x1 = 0.4993): 7.927 ± 3 mPa·s
viscosity (308.15 K, x1 = 0.5877): 7.677 ± 3 mPa·s
viscosity (308.15 K, x1 = 0.6993): 7.319 ± 3 mPa·s
viscosity (308.15 K, x1 = 0.797): 7.01 ± 3 mPa·s
viscosity (308.15 K, x1 = 0.8977): 6.737 ± 3 mPa·s
viscosity (313.15 K, x1 = 0.0096): 9.449 ± 3 mPa·s
viscosity (313.15 K, x1 = 0.0395): 9.1 ± 3 mPa·s
viscosity (313.15 K, x1 = 0.0579): 8.919 ± 3 mPa·s
viscosity (313.15 K, x1 = 0.0879): 8.646 ± 3 mPa·s
viscosity (313.15 K, x1 = 0.1): 8.562 ± 3 mPa·s
viscosity (313.15 K, x1 = 0.1962): 7.926 ± 3 mPa·s
viscosity (313.15 K, x1 = 0.305): 7.366 ± 3 mPa·s
viscosity (313.15 K, x1 = 0.3969): 7.016 ± 3 mPa·s
viscosity (313.15 K, x1 = 0.4993): 6.692 ± 3 mPa·s
viscosity (313.15 K, x1 = 0.5877): 6.437 ± 3 mPa·s
viscosity (313.15 K, x1 = 0.6993): 6.14 ± 3 mPa·s
viscosity (313.15 K, x1 = 0.797): 5.861 mPa·s
viscosity (313.15 K, x1 = 0.8977): 5.625 mPa·s
viscosity (318.15 K, x1 = 0.0096): 7.776 ± 3 mPa·s
viscosity (318.15 K, x1 = 0.0395): 7.468 ± 3 mPa·s
viscosity (318.15 K, x1 = 0.0579): 7.326 ± 3 mPa·s
viscosity (318.15 K, x1 = 0.0879): 7.096 ± 3 mPa·s
viscosity (318.15 K, x1 = 0.1): 7.014 ± 3 mPa·s
viscosity (318.15 K, x1 = 0.1962): 6.505 ± 3 mPa·s
viscosity (318.15 K, x1 = 0.305): 6.078 mPa·s
viscosity (318.15 K, x1 = 0.3969): 5.819 mPa·s
viscosity (318.15 K, x1 = 0.4993): 5.617 mPa·s
viscosity (318.15 K, x1 = 0.5877): 5.439 mPa·s
viscosity (318.15 K, x1 = 0.6993): 5.219 mPa·s
viscosity (318.15 K, x1 = 0.797): 5.05 mPa·s
viscosity (318.15 K, x1 = 0.8977): 4.89 mPa·s

Source: the CheMixHub viscosity set
